Results reported in paper PMC5635289, “Differential Effects of Angelicin Analogues on NF-κB Activity and IL-8 Gene Expression in Cystic Fibrosis IB3-1 Cells” (Mediators of Inflammation, 2017).

Tests used:
[1] = molecular target: T1, NF-κB p50 (Homo sapiens, UniProt P19838); experiment: EMSA, inhibition of NF-κB/DNA interactions; format: binding; conditions: NF-κB p50 and 32P-labeled NF-κB oligonucleotide, MIC = minimal inhibitory concentration, 12.5 μM was the lowest concentration used
T1 construct: This assay was performed using purified NF-κB p50; purchased Promega
T1 sequence (P19838 1-433 limits assumed): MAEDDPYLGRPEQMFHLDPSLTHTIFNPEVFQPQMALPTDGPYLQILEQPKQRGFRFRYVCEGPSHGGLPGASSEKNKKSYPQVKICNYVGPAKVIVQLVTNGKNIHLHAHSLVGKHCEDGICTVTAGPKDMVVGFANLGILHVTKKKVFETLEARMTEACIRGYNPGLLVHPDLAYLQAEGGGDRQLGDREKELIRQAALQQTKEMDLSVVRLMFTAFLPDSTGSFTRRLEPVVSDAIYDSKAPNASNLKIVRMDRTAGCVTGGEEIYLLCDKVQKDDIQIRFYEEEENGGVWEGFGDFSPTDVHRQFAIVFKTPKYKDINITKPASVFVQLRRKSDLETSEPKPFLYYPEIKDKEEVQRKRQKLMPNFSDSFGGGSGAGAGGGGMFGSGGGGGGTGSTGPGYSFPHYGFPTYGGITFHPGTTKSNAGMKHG
Protocol: Electrophoretic mobility shift assays were performed using double-stranded ^32P-labeled oligonucleotides as target DNA. Binding reactions were set up as previously described in binding buffer (10% glycerol, 0.05% NP-40, 10 mM Tris-HCl pH 7.5, 50 mM NaCl, 0.5 mM DTT, and 10 mM MgCl2), in the presence of 0.1 μl/20 μl of NF-κB p50 (50 gsu) (Promega, Madison, WI, USA) and 0.25 ng of labeled oligonucleotide, in a total volume of 20 μl. After 30 min binding at room temperature, samples were electrophoresed at constant voltage (200 V for 30 min) through a low ionic strength (0.25 TBE buffer) (1 TBE/40.089 M Tris-borate, 0.002 M EDTA) on 6% polyacrylamide gels until the tracking dye (bromophenol blue) reached the bottom of a 16 cm slab. Gels were dried and exposed for autoradiography with intensifying screens at […]. In these experiments, DNA/protein complexes migrate through the gel with slower efficiency. In studies on the inhibitors of protein/DNA interactions, addition of the reagents was as follows: (i) nuclear factors, (ii) active principles, (iii) binding buffer, and (iv) labeled oligonucleotides mimicking the binding sites for TF to be modulated. The nucleotide sequence of double-stranded target DNA utilized in these experiments was 5′-CGC TGG GGA CTT TCC ACG G-3′ (sense strand, NF-κB). The synthetic oligonucleotides utilized in this study were purchased from Sigma Genosys (Sigma Genosys, Cambs, UK). To calculate the effective concentrations, three different autoradiograms obtained from different time exposures were scanned and compared to control EMSA performed without addition of angelicin analogues (two independent experiments were performed).
The effects of TMA derivatives on NF-κB- (nuclear factor-kappaB-) mediated induction of proinflammatory genes was verified first in vitro by electrophoretic mobility shift assay (EMSA) with the aim to verify and quantify the possible inhibition of NF-κB/DNA interactions. This assay was performed using purified NF-κB p50 and ^32P-labeled target NF-κB double-stranded oligonucleotide mimicking the NF-κB consensus sequence present within the IL-8 gene promoter.

[2] = system: IB3-1 cells; experiment: Cell proliferation assay on IB3-1 cells; format: cell-based; conditions: Homo sapiens, cell number/ml after 48 h of treatment
Protocol: Monolayers of 60% confluent IB3-1 cells were seeded in 24- or 12-well plates in LHC-8 medium in the presence of 5% FBS. After 24 h, TMA derivatives were added at serial dilutions and incubated for further 2-3 days. The effects of compounds (TMA derivatives) on the cell proliferation were analyzed as elsewhere described. A first analysis was performed with serial dilutions to obtain 50 μM, 200 μM, and 800 μM solutions. In order to determine IC50 values, the following concentrations were used 12.5, 25, 50, 100, 200, and 800 μM. In order to prepare the cells for counting, they were washed with PBS 1X and detached with trypsin/EDTA. Cells were suspended in physiological solution and counted with a Z2 Coulter Counter (Coulter Electronics, Hialeah, FL, USA). The cell number/ml was determined as IC50 after 2 days of culture, when untreated cells are in log phase of cell growth.
In order to obtain preliminary information on the biological properties of TMA derivatives, their effects on cell growth were examined on IB3-1 cell line, excellent biological model to study new potential anti-inflammatory molecules. The use of this cell line to study the expression of proinflammatory molecules under a variety of stimuli is well established. Monolayers of 60% confluent IB3-1 cells were seeded in 12-well plate in LHC-8 medium with 5% FBS. After 24 h, compounds were added at different concentrations and the cell number/ml was determined after further 48 h of culture.

[3] = system: IL-8 mRNA; experiment: RT-qPCR quantification of IL-8 mRNA in TNF-α-induced IB3-1 cells; format: cell-based, human; conditions: for inhibition at 1 µM / inhibition at 10 µM: Homo sapiens, IB3-1, 24 h, TNF-α-induced IB3-1 cells, RT-qPCR, na = not active at the used concentrations; for inhibition at 1 µM: 1 μM compound; for inhibition at 10 µM: 10 μM compound
Protocol: Monolayers of 60% confluent IB3-1 cells were seeded in 6- or 12-well plates in LHC-8 medium in the presence of 5% FBS. After 24 h, pure derivatives were added, 5 h before stimulation with TNF-α 80 ng/ml (ORF Genetics, Kopavogur, Iceland), and incubated for a further 24 h. Total RNA was extracted using TRIzol Reagent (Sigma-Aldrich, St. Louis, MO) following the manufacturer's instructions. Reverse transcription (RT) was performed using Reverse Transcription System kit (Promega, Madison, WI): 1 μg of total RNA was reverse transcribed in the presence of 5 mM MgCl2, 1X reverse transcription buffer (10 mM Tris-HCl, 50 mM KCl, and 0.1% Triton X-100), 1 mM each dNTPs, 20 U recombinant Rnasin Ribonuclease Inhibitor, 15 U AMV Reverse Transcriptase, and 0.5 μg oligo(dT)15 primers in a total volume of 20 μl for 10 min at 70°C and 60 min at 42°C. The resulting cDNA was quantified by relative quantitative real-time PCR (real-time qPCR). For real-time qPCR, 1 μl of cDNA was used for each SYBR Green reaction to quantify the relative expression of IL-8. Each 25 μl of total reaction volume contained 1 μl of cDNA, 10 pmol of primers, 1 iQTM SYBR Green Supermix (Bio-Rad Laboratories Inc., Hercules, CA). Real-time PCRs were performed for a total of 40 cycles (denaturation, 95°C for 10 s; annealing, 68°C for 30 s for IL-8, 65°C for 30 s for IL-6; elongation, 72°C for 60 s) using an iCycler IQ5 (Bio-Rad Laboratories Inc., Hercules, CA). Primer sequences were as follows: IL-8 forward: 5′-GTGCAGTTTTGCCAAGGAGT-3′ and IL-8 reverse: 5′-TTATGAATTCTCAGCCCTCTTCAAAAACTTCTC-3′. The relative proportions of each amplified template were determined utilizing the threshold cycle (CT) value for each performed PCR. The DDCt method was used to compare gene expression data. Each sample was quantified in duplicate. Changes in mRNA expression level were calculated following normalization with the GAPDH calibrator gene (housekeeping gene) and expressed as fold change over untreated samples [24]. Duplicates of negative controls (no template cDNA) were also run with every experimental plate to assess specificity and indicate potential contamination.
With the aim to study the effective anti-inflammatory properties of these new psoralen derivatives, we decided to further characterize the TMA derivatives for their potential activities on the expression of IL-8 gene, known to be involved in the lung inflammatory process in CF. […] More specifically, we were first interested in identifying compounds with low antiproliferative activity, but effective in downmodulating inflammatory gene expression without achieving a full suppression of these genes. We therefore employed IB3-1 cystic fibrosis cells, incubated for 5 h with two concentrations (1 μM and 10 μM) of selected compounds, and then treated with TNF-α ([…]). In the IB3-1 cystic fibrosis cellular model, NF-κB-dependent genes, including the gene encoding for the proinflammatory protein IL-8, generally are activated following infection with P. aeruginosa or treatment with TNF-α or IL-1β [26, 28, 31]. This feature is very important in the pathophysiology of CF, since several clinical complications are caused by exacerbation of this inflammatory response. After 1 day of incubation, cellular RNA was isolated for RT-qPCR analysis. All the TMA analogues found to be active in inhibiting NF-κB/DNA interactions were analyzed for their effects on inhibition of TNF-α-induced accumulation of IL-8 mRNA.

| SMILES | Inhibition of NF-κB/DNA complex (MIC) [1] | IC50 [2] [µM] | inhibition at 1 µM [3] [%] | inhibition at 10 µM [3] [%] | Inhibition of IL-8 expression (range given) ([3]; IB3-1 cells, low concentrations (1–10 μM), concentration not specified per value) |
| --- | --- | --- | --- | --- | --- |
| Cc1cc(=O)[nH]c2c1cc(C)c1occ(C)c12 [Compound 17] | > 100 µM | 193 | – | – | – |
| C=CCc1c(O)c(C)cc2c(CO)cc(=O)oc12 [Compound 38] | 25 µM | 506 | 36 | 81 | 52–83% |
| Cc1oc2c(C)cc3c(C)cc(=O)oc3c2c1CO [Compound 23] | – | 452 | 3 | 11 | – |
| Cc1c(C)c2cc(C)c3occc3c2oc1=O [Compound 28] | 12.5 to 25 µM | > 800 | 21 | 36 | – |
| Cc1cc(=O)oc2c1cc(C)c1[nH]nnc12 [Compound 31] | 25 µM | > 800 | – | – | – |
| Cc1cc(=O)oc2c1cc(Cl)c1occ(C)c12 [Compound 12] | 12.5 µM | > 800 | 0 | – | – |
| Cc1cc2c(C)cc(=O)oc2c2c1OCC=C2 [Compound 35] | 25 to 50 µM | 137 | 56 | 37 | – |
| COC1Cc2c(ccc3c(C)cc(=O)oc23)O1 (stereo not shown) [Compound 21] | – | 678 | – | – | – |
| Cc1cc(=O)oc2c3c(ccc12)OC(CBr)C3 (stereo not shown) [Compound 22] | > 100 µM | 180 | – | – | – |
| Cc1oc2c(cc(C)c3occ(C)c32)c(=O)c1C [Compound 27] | <12.5 (^∗) μM | > 800 | 16 | – | – |
| Cc1cc2oc(=O)cc(C)c2c2c1C=CCO2 [Compound 36] | 12.5 to 25 µM | > 800 | 77 | 74 | – |
| Cc1cc2c(C(F)(F)F)cc(=O)oc2c2c(C)coc12 [Compound 7] | > 100 µM | > 800 | – | – | – |
| Cc1coc2c1c1occ(C)c1c1oc(=O)cc(C)c21 [Compound 29] | <12.5 (^∗) μM | > 800 | – | 12 | – |
| Cc1cc2c(o1)c(C)cc1c(CO)cc(=O)oc12 [Compound 25] | 25 to 50 µM | 551 | – | – | – |
| Cc1cc(=O)oc2c1cc(C)c1occc12 [Compound 4] | 75 µM | > 800 | – | – | – |
| Cc1cc2c(CO)cc(=O)oc2c2cc(CO)oc12 [Compound 24] | > 100 µM | 197 | – | – | – |
| Cc1cc2c(CBr)cc(=O)oc2c2c(C)coc12 [Compound 10] | < 12.5 µM | < 50 | – | – | – |
| CC(=O)OCc1oc2c(C)cc3c(C)cc(=O)oc3c2c1C [Compound 2] | > 100 µM | > 800 | – | – | – |
| Cc1cc(=O)oc2c1cc(C)c1scc(C)c12 [Compound 14] | > 100 µM | > 800 | – | – | – |
| COCc1cc(=O)oc2c1cc(C)c1occ(C)c12 [Compound 9] | 12.5 µM | > 800 | – | – | – |
| Cc1cc(=O)oc2c1ccc1occ(C)c12 [Compound 11] | > 100 µM | 182 | – | – | – |
| Cc1cc2ccc(=O)oc2c2c(C)coc12 [Compound 6] | > 100 µM | 454 | – | – | – |
| Cc1cc(=O)oc2c3c(ccc12)OC(C)C3 (stereo not shown) [Compound 20] | – | 154 | – | – | – |
| Cc1cc2c(CO)cc(=O)oc2cc1O [Compound 37] | 12.5 to 25 µM | > 800 | – | – | – |
| Cc1cc(=O)[nH]c2c1cc(C)c1oc(CO)c(C)c12 [Compound 18] | – | > 800 | – | – | – |
| Cc1cc(=O)n(C)c2c1cc(C)c1occ(C)c12 [Compound 19] | – | 131 | – | – | – |
| COCc1cc(=O)oc2c1cc(C)c1scc(C)c12 [Compound 15] | > 100 µM | > 800 | – | – | – |
| Cc1cc(=O)oc2c1cc(Br)c1occ(C)c12 [Compound 13] | 12.5 µM | > 800 | – | – | – |
| COCc1oc2c(C)cc3c(C)cc(=O)oc3c2c1C [Compound 3] | > 100 µM | > 800 | – | – | – |
